“Also recorded” adds a separate entry of the source.
Experiments:
Format in all cases: in vivo, mouse
C1039G/+ mice = assay: Aortic wall histology (elastic matrix architecture) in treated C1039G/+ mice; conditions: 4 months of treatment
Fbn1C1039G/+ mice = assay: Muscle regeneration after cardiotoxin-induced injury in Fbn1C1039G/+ mice; conditions: 4 and 18 days after injury, monopotassium salt
Procedure: All mouse protocols were approved by the Animal Care and Use Committee of Johns Hopkins University School of Medicine. Creation of the mouse line harboring the Fbn1 mutation C1039G has been previously described (Judge, D. P. et al. (2004) J Clin Invest 114, 172-81). All analyses were performed in male mice after back-crossing (>9 times) this mutation into the C57BL/6J background, allowing valid comparisons between litters. Mice were sacrificed with an inhalation overdose of halothane (Sigma-Aldrich) or by cervical dislocation. […] Subsequently, mice were analyzed at 4, 7, 18 and 28 days after injury. For regeneration experiments in mdx mice we injected 150 μl of cardiotoxin into the tibialis anterior muscle of wild-type and mdx mice, either treated or untreated with TGFβ neutralizing antibody (n=6 each group) at 9 months of age and analyzed skeletal muscle at 4 days and 18 days after injection.
Mice were continued on oral therapy for 6 months and sacrificed. […] After 6 months of treatment, forelimb and hindlimb grip strength was assessed using an automated grip strength meter (Columbus Instruments, Columbus, Ohio). […] Total peak force (in Newtons) was determined by an electronic strain gauge as previously described and corrected for body weight (Wagner, K. R., et al. (2002) Ann Neurol 52, 832-6). […]

[1] = system: TGFβ signaling (pSmad2/3, periostin); assay: Immunofluorescence of TGFβ signaling markers (pSmad2/3, periostin, TSP1) in skeletal muscle of fibrillin-1 deficient mice
Procedure: (§1) Immunofluorescent studies were performed as previously described (Cohn, R. D. et al. (2002) Cell 110, 639-48). […] The following antibodies were used in this study: goat polyclonal anti-pSmad 2/3, rabbit polyclonal anti c-met and rabbit polyclonal anti-myogenin (all from Santa Cruz Biotechnology Inc.); rabbit polyclonal anti-pSmad2 (#3104, Cell Signal) rat polyclonal anti-lamininyl, rabbit polyclonal anti-dystrophin, rabbit polyclonal antithrombospondin-1 and rabbit polyclonal anti-periostin (all from Abcam); rabbit polyclonal anti-fibrillin-1 (pAb 9543) (Judge, D. P. et al. (2004) J Clin Invest 114, 172-81); goat polyclonal anti-vimentin (Sigma) and, mouse monoclonal anti-beta-sarcoglycan mouse monoclonal anti-developmental myosin (Novocastra). Anti a-dystroglycan antibody IIH6 was generously supplied by Dr. Kevin Campbell, Iowa. Secondary Alexa fluor donkey anti-rabbit, anti-rat, anti mouse IgM and IgG1 and anti-goat conjugated antibodies (Molecular probes) were applied for 1 hour at room temperature. Nuclei were stained with DAPI for 5 minutes, and inverted coverslips were mounted onto glass slides using Cytoseal (Vector Laboratories).
Skeletal muscle from Fbn1^C1039G/+ mice was assessed for increased TGFβ signaling by immunohistochemical staining for phosphorylated Smad2/3 (pSmad2/3). […]

Fbn1mgR/mgR mice = assay: Forelimb grip strength and fatigue in Fbn1mgR/mgR mice; conditions: 5 months of losartan, untreated 28±2.5, wild-type 3±0.8
Procedure: Mice were continued on oral therapy for 6 months and sacrificed. […] Age-matched wild-type and mdx mice (placebo-treated) served as a control group. After 6 months of treatment, forelimb and hindlimb grip strength was assessed using an automated grip strength meter (Columbus Instruments, Columbus, Ohio). The experiments for forelimb and hindlimb grip strength testing were conducted at different days allowing for a minimum recovery period of 10 days. Total peak force (in Newtons) was determined by an electronic strain gauge as previously described and corrected for body weight (Wagner, K. R., et al. (2002) Ann Neurol 52, 832-6). Five measurements within 2 minutes were taken from each animal. The three highest measurements for each animal were averaged to give the strength score. The degree of fatigue was calculated by comparing the first two pulls to the last two pulls with the decrement between pulls 1+2 and pulls 4+5 providing a measure of fatigue. Similarly, functional measurements were performed in 6 month old fibrillin-1 deficient mice (Fbn1^mgR) (Pereira, L. et al. (1997) Nat Genet. 17, 218-22) after 5 months of treatment.

[2] = system: TGFβ signaling cascade (TSP1, pSmad2, periostin); assay: Immunofluorescent analysis of proteins downstream of angiotensin II type 1 receptor in mdx muscle; conditions: monopotassium salt
Procedure: as §1
It has recently been shown that thrombospondin-1 (TSP1) acts as a potent mediator of angiotensin II induced TGF-beta activation via AT I R (Zhou Y, et al. (2006) Biochem Biophys Res Commun. 339, 633-641). […] Therefore, the expression of dystrophin, a-dystroglycan and R-sarcoglycan in losartan-treated and untreated mdx mice was investigated.

In the case of `CCCCc1nc(Cl)c(CO)n1Cc1ccc(-c2ccccc2-c2nnn[nH]2)cc1.[K]` [losartan, 2-butyl-4-chloro-1-[p-(o-1H-tetrazol-5-ylphenyl)benzyl]imidazole-5-methanol monopotassium salt], the “Elastic matrix architecture / histologic parameters of the aorta” value (C1039G/+ mice) is reported as “normalized”, the “Muscle regeneration after cardiotoxin injury, in words” value (Fbn1C1039G/+ mice; listed as Losartan) is reported as “rescued; also recorded: normal initiation of muscle regeneration” and the “Muscle regeneration after cardiotoxin injury, in words” value (Fbn1C1039G/+ mice) is reported as “markedly improved”. For the same compound, the “Nuclear pSmad2/3 and sarcolemmal periostin in uninjured skeletal muscle” value ([1]; Fbn1C1039G/+ mice, steady state) was “abrogation of TGFβ signaling”, the “Expression of thrombospondin-1 (TSP1) and periostin in skeletal muscle” value ([1]; losartan-treated fibrillin-1 deficient mice) was “Decreased expression” and the Fatigue (Fbn1mgR/mgR mice) was 9%±1.8. The “Expression of thrombospondin-1 (TSP1)” value ([2]; mdx diaphragm and other muscles) was “greatly reduced expression of TSP1”, the “Dystrophin, a-dystroglycan, sarcoglycan expression / ubiquitin mediated proteolysis” value ([2]; mdx mice) was “did not have any impact; also recorded: absent” and the “Nuclear accumulation of pSmad2 and sarcolemmal expression of periostin” value ([2]; mdx mice) was “did not show any significant nuclear accumulation of pSmad2 or sarcolemmal expression of periostin; also recorded: diminished”.

— patent US8597646B2, “Methods and compositons featuring TGF-beta antagonists for the treatment of marfan syndrome and associated disorders” (The Johns Hopkins University, priority 2005, dated 2013)
